As a reminder, the inhibition is the change of the read-out against control, counted positive when it falls.

Results on 18 compounds are retold here after US20230072683A1, “PYRIDO-PYRIMIDIN DERIVATIVES AND PHARMACEUTICAL COMPOSITION, FOR USE IN PREVENTING OR TREATING PI3 KINASE RELATED DISEASES, COMPRISING SAME AS ACTIVE INGREDIENT” (BORYUNG PHARMACEUTICAL CO., LTD, priority 2019, published 2023).

Assay [1] addresses PI3K-δ (PI3K(p1108/p857) (h)) (Homo sapiens, UniProt O00329). Kind of assay: Evaluation of inhibitory activity against PI3K-δ (HTRF kinase assay). The note with it: for inhibition at 0.01 µM: compound concentration 0.01 μM, read-out: EXP_VALUE(% Inhibition) PI3K-δ 0.01 μM; for inhibition at 0.1 µM: compound concentration 0.1 μM, read-out: EXP_VALUE(% Inhibition) PI3K-δ 0.1 μM. The class given is biochemical. The method, boiled down:
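HTRF read-out (665/620 nm ratio ×10000) used Eu-labelled anti-GST, GST-tagged GRP1 PH domain and streptavidin-allophycocyanin after EDTA/PIP3 stop.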

A further assay concerns the target DNA-PK(h) (Homo sapiens, UniProt P78527). Nature of the assay: Evaluation of inhibitory activity against DNA-PK (HTRF kinase assay, GST-cMyc-p53 substrate). The note with it: for inhibition at 0.01 µM: compound concentration 0.01 μM, read-out: EXP_VALUE(% Inhibition) DNA-PK(h) 0.01 μM; for inhibition at 0.1 µM: compound concentration 0.1 μM, read-out: EXP_VALUE(% Inhibition) DNA-PK(h) 0.1 μM. Format: biochemical. The method, boiled down:
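Human DNA-PK with 50 μM GST-cMyc-p53 substrate; reaction started with Mg/ATP, run 30 min at room temperature, stopped with EDTA. Phospho-Ser15 p53 detected by HTRF (Eu anti-phospho-Ser15, d2 anti-GST), signal = 10000×(Em 665/Em 620).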

Chain of PI3K-δ (PI3K(p1108/p857) (h)) (O00329 whole entry, the tested form may be a part): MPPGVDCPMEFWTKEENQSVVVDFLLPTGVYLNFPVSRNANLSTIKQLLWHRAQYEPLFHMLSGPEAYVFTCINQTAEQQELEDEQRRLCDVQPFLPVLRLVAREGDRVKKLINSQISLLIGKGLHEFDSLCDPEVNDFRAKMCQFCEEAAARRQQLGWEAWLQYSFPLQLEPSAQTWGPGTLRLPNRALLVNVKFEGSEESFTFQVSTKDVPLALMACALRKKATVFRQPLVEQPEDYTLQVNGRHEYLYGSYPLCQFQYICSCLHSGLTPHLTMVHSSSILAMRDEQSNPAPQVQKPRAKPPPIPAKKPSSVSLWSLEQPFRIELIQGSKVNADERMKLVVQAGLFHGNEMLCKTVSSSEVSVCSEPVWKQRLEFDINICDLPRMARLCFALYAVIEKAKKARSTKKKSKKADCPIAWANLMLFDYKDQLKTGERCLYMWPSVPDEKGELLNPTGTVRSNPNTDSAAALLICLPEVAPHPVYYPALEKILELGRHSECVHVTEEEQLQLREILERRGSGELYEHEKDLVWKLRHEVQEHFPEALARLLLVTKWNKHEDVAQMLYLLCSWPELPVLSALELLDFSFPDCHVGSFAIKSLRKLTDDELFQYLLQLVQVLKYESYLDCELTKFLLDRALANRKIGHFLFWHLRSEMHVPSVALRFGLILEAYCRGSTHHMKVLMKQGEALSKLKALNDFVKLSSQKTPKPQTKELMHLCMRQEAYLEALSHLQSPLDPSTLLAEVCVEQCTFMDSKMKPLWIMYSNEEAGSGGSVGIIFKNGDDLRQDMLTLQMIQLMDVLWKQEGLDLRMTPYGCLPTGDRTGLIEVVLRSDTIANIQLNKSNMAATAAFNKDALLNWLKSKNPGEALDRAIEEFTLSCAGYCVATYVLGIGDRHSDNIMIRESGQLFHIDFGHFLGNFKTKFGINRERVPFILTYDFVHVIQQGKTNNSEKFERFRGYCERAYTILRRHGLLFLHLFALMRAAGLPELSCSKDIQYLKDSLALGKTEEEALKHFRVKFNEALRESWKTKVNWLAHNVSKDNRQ
Chain of PI3K-δ (PI3K(p1108/p857) (h)) (P27986 whole entry partner, the tested form may be a part): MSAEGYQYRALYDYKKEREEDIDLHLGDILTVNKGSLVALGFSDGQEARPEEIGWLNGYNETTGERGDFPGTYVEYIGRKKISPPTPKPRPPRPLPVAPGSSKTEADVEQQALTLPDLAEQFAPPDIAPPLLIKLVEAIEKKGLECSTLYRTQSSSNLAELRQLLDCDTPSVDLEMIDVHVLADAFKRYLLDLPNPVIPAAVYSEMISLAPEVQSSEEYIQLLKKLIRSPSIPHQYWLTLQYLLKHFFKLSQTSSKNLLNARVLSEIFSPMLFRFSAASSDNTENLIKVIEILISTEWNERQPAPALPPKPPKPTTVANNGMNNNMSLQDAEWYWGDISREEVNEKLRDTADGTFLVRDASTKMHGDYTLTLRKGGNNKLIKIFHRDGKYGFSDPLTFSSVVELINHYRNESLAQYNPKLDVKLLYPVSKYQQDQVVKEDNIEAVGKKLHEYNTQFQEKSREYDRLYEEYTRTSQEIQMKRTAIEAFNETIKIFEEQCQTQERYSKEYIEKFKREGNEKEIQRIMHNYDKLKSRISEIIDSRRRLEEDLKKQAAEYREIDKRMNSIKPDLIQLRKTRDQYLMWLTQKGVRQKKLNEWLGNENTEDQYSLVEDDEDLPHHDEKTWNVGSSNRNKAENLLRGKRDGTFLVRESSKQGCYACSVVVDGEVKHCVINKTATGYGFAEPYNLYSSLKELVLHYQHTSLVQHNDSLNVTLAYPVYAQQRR

With `Cc1c(-c2cccc3c(Cl)c([C@H](C)Nc4ncnc5[nH]ccc(=O)c45)n(-c4ccccc4)c(=O)c23)cnn1C` [Example 82, (S)-4-((1-(4-chloro-8-(1,5-dimethyl-1H-pyrazol-4-yl)-1-oxo-2-phenyl-1,2-dihydroisoquinolin-3-yl)ethyl)amino)pyrido[2,3-d]pyrimidin-5(8H)-one], the inhibition at 0.01 µM was 73% in assay [1] and 74% at DNA-PK(h). The inhibition at 0.1 µM (in assay [1]; at DNA-PK(h)) was 94% in each case.
As to `C[C@H](Nc1ncnc2[nH]ccc(=O)c12)c1c(Cl)c2cccc(-c3cnn(CCN(C)C)c3)c2c(=O)n1-c1ccccc1` [Example 83, (S)-4-((1-(4-chloro-8-(1-(2-(dimethylamino)ethyl)-1H-pyrazol-4-yl)-1-oxo-2-phenyl-1,2-dihydroisoquinolin-3-yl)ethyl)amino)pyrido[2,3-d]pyrimidin-5(8H)-one], the inhibition at 0.01 µM turned out to be 56% in assay [1] and 66% on DNA-PK(h). In addition, the inhibition at 0.1 µM in assay [1] was determined as 89%; at DNA-PK(h) it was 94%.
The matching figures for `C[C@H](Nc1ncnc2[nH]ccc(=O)c12)c1c(Cl)c2cccc(-c3ccc(Cl)cc3)c2c(=O)n1-c1ccccc1` [Example 84, (S)-4-((1-(4-chloro-8-(4-chlorophenyl)-1-oxo-2-phenyl-1,2-dihydroisoquinolin-3-yl)ethyl)amino)pyrido[2,3-d]pyrimidin-5(8H)-one]: 49%, 16%, 91% and 65%.
In the case of `C[C@H](Nc1ncnc2[nH]ccc(=O)c12)c1c(Cl)c2cccc(-c3ccc(C=O)cc3)c2c(=O)n1-c1ccccc1` [Example 85, (S)-4-(4-chloro-1-oxo-3-(1-((5-oxo-5,8-dihydropyrido[2,3-d]pyrimidin-4-yl)amino)ethyl)-2-phenyl-1,2-dihydroisoquinolin-8-yl)benzaldehyde], the values for the inhibition at 0.01 µM (in assay [1]; on DNA-PK(h)) were 73% and 56%, respectively. The results for the inhibition at 0.1 µM (in assay [1]; on DNA-PK(h)) were 95% and 91%, respectively.
The matching figures for `C[C@H](Nc1ncnc2[nH]ccc(=O)c12)c1c(Cl)c2cccc(-c3ccc(N(C)C)nc3)c2c(=O)n1-c1ccccc1` [Example 86, (S)-4-((1-(4-chloro-8-(6-(dimethylamino)pyridin-3-yl)-1-oxo-2-phenyl-1,2-dihydroisoquinolin-3-yl)ethyl)amino)pyrido[2,3-d]pyrimidin-5(8H)-one]: 67%, 72%, 94% and 95%.
The matching figures for `C[C@H](Nc1ncnc2[nH]ccc(=O)c12)c1c(Cl)c2cccc(-c3ccc(N4CCCC4)cc3)c2c(=O)n1-c1ccccc1` [Example 87, (S)-4-((1-(4-chloro-1-oxo-2-phenyl-8-(4-(pyrrolidin-1-yl)phenyl)-1,2-dihydroisoquinolin-3-yl)ethyl)amino)pyrido[2,3-d]pyrimidin-5(8H)-one]: 38%, 31%, 83% and 79%.
In the same order, the values of `C[C@H](Nc1ncnc2[nH]ccc(=O)c12)c1c(Cl)c2cccc(-c3ccc(N4CCCCC4)cc3)c2c(=O)n1-c1ccccc1` [Example 88, (S)-4-((1-(4-chloro-1-oxo-2-phenyl-8-(4-(piperidin-1-yl)phenyl)-1,2-dihydroisoquinolin-3-yl)ethyl)amino)pyrido[2,3-d]pyrimidin-5(8H)-one] are 42%, 33%, 88% and 78%.
`C[C@H](Nc1ncnc2[nH]ccc(=O)c12)c1c(Cl)c2cccc(-c3cccc4[nH]ccc34)c2c(=O)n1-c1ccccc1` [Example 89, (S)-4-((1-(4-chloro-8-(1H-indol-4-yl)-1-oxo-2-phenyl-1,2-dihydroisoquinolin-3-yl)ethyl)amino)pyrido[2,3-d]pyrimidin-5(8H)-one]: in assay [1], the inhibition at 0.01 µM is 58% and the inhibition at 0.1 µM worked out at 92%. In addition, on DNA-PK(h), the inhibition at 0.01 µM turned out to be 17% and the inhibition at 0.1 µM is 52%.
The matching figures for `C[C@H](Nc1ncnc2[nH]ccc(=O)c12)c1c(Cl)c2cccc(-c3cccc(CC#N)c3)c2c(=O)n1-c1ccccc1` [Example 91, (S)-2-(3-(4-chloro-1-oxo-3-(1-((5-oxo-5,8-dihydropyrido[2,3-d]pyrimidin-4-yl)amino)ethyl)-2-phenyl-1,2-dihydroisoquinolin-8-yl)phenyl)acetonitrile]: 89%, 101%, 77% and 98%.
The matching figures for `C[C@H](Nc1ncnc2[nH]ccc(=O)c12)c1c(Cl)c2cccc(-c3ccc(-c4nnc(N)s4)cc3)c2c(=O)n1-c1ccccc1` [Example 92, (S)-4-((1-(8-(4-(5-amino-1,3,4-thiadiazol-2-yl)phenyl)-4-chloro-1-oxo-2-phenyl-1,2-dihydroisoquinolin-3-yl)ethyl)amino)pyrido[2,3-d]pyrimidin-5(8H)-one]: 91%, 97%, 63% and 92%.
Take `C[C@H](Nc1ncnc2[nH]ccc(=O)c12)c1c(Cl)c2cccc(-c3ccc(-c4cccs4)cc3)c2c(=O)n1-c1ccccc1` [Example 93, (S)-4-((1-(4-chloro-1-oxo-2-phenyl-8-(4-(thiophen-2-yl)phenyl)-1,2-dihydroisoquinolin-3-yl)ethyl)amino)pyrido[2,3-d]pyrimidin-5(8H)-one]: in assay [1], the inhibition at 0.01 µM came out at 46% and the inhibition at 0.1 µM is 79%. Also, at DNA-PK(h), the inhibition at 0.01 µM amounted to 13% and the inhibition at 0.1 µM came out at 45%.
As for `C[C@H](Nc1ncnc2[nH]ccc(=O)c12)c1c(Cl)c2cccc(-c3ccc(N)cc3)c2c(=O)n1-c1ccccc1` [Example 94, (S)-4-((1-(8-(4-aminophenyl)-4-chloro-1-oxo-2-phenyl-1,2-dihydroisoquinolin-3-yl)ethyl)amino)pyrido[2,3-d]pyrimidin-5(8H)-one], in assay [1], the inhibition at 0.01 µM was 84% and the inhibition at 0.1 µM is 95%. Further, on DNA-PK(h), the inhibition at 0.01 µM was determined as 78% and the inhibition at 0.1 µM is 100%.
In the same order, the values of `C[C@H](Nc1ncnc2[nH]ccc(=O)c12)c1c(Cl)c2cccc(-c3ccc(S)cc3)c2c(=O)n1-c1ccccc1` [Example 95, (S)-4-((1-(4-chloro-8-(4-mercaptophenyl)-1-oxo-2-phenyl-1,2-dihydroisoquinolin-3-yl)ethyl)amino)pyrido[2,3-d]pyrimidin-5(8H)-one] are 3%, 14%, 9% and 16%.
In the same order, the values of `C[C@H](Nc1ncnc2[nH]ccc(=O)c12)c1c(Cl)c2cccc(-c3cnn(C4CC4)c3)c2c(=O)n1-c1ccccc1` [Example 96, (S)-4-((1-(4-chloro-8-(1-cyclopropyl-1H-pyrazol-4-yl)-1-oxo-2-phenyl-1,2-dihydroisoquinolin-3-yl)ethyl)amino)pyrido[2,3-d]pyrimidin-5(8H)-one] are 86%, 97%, 78% and 100%.
The matching figures for `C[C@H](Nc1ncnc2[nH]ccc(=O)c12)c1c(Cl)c2cccc(-c3cccc(Cl)c3)c2c(=O)n1-c1ccccc1` [Example 97, (S)-4-((1-(4-chloro-8-(3-chlorophenyl)-1-oxo-2-phenyl-1,2-dihydroisoquinolin-3-yl)ethyl)amino)pyrido[2,3-d]pyrimidin-5(8H)-one]: 84%, 99%, 35% and 87%.
For `Cc1ccc(-c2cccc3c(Cl)c([C@H](C)Nc4ncnc5[nH]ccc(=O)c45)n(-c4ccccc4)c(=O)c23)o1` [Example 98, (S)-4-((1-(4-chloro-8-(5-methylfuran-2-yl)-1-oxo-2-phenyl-1,2-dihydroisoquinolin-3-yl)ethyl)amino)pyrido[2,3-d]pyrimidin-5(8H)-one], the values for the inhibition at 0.01 µM (in assay [1]; on DNA-PK(h)) were 66% and 84%, respectively. Besides, the inhibition at 0.1 µM is 91% in assay [1] and 98% at DNA-PK(h).
In the same order, the values of `COc1cc(-c2cccc3c(Cl)c([C@H](C)Nc4ncnc5[nH]ccc(=O)c45)n(-c4ccccc4)c(=O)c23)ccc1Cl` [Example 99, (S)-4-((1-(4-chloro-8-(4-chloro-3-methoxyphenyl)-1-oxo-2-phenyl-1,2-dihydroisoquinolin-3-yl)ethyl)amino)pyrido[2,3-d]pyrimidin-5(8H)-one] are 83%, 54%, 108% and 95%.
The matching figures for `COc1cc(-c2cccc3cc([C@H](C)Nc4ncnc5[nH]ccc(=O)c45)n(-c4ccccc4)c(=O)c23)ccc1Cl` [Example 100, (S)-4-((1-(8-(4-chloro-3-methoxyphenyl)-1-oxo-2-phenyl-1,2-dihydroisoquinolin-3-yl)ethyl)amino)pyrido[2,3-d]pyrimidin-5(8H)-one]: 82%, 17%, 104% and 54%.
